Source: PubChem BioAssay AID248 (DTP/NCI, 2004)
Where “and” joins values, the source holds several entries; their conditions need not be identical. Equal entries are not always repeated. Inconclusive results and toxic doses are left out. Rule as the data show it: active = T/C of 150% or more; inactive = T/C below 125%. Peptide text beside a SMILES is read from it. * marks the point of attachment. Boc = CC(C)(C)OC(=O)*

Tested on: L1210 leukemia ip in BDF1 mice, survival T/C
Experiment: NCI In Vivo Anticancer Drug Screen. Data for tumor model L1210 Leukemia (intraperitoneal) in B6D2F1 (BDF1) mice
Details: endpoint: mean survival time, higher = longer survival
Method in brief: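 Read-out is survival time, reported as the treated-group measurement over the vehicle-control measurement.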

[1] = dose: 25.0 mg/kg/injection, schedule: Q04DX002 (ip), vehicle: saline
[2] = dose: 50.0 mg/kg/injection, schedule: Q04DX002 (ip), vehicle: saline
[3] = dose: 100.0 mg/kg/injection, schedule: Q04DX002 (ip), vehicle: saline
[4] = dose: 200.0 mg/kg/injection, schedule: Q04DX002 (ip), vehicle: saline
[5] = dose: 400.0 mg/kg/injection, schedule: Q04DX002 (ip), vehicle: saline
[6] = dose: 50.0 mg/kg/injection, schedule: Q04DX002 (ip), vehicle: Klucel (hydroxypropylcellulose) (HPC)
[7] = dose: 100.0 mg/kg/injection, schedule: Q04DX002 (ip), vehicle: Klucel (hydroxypropylcellulose) (HPC)
[8] = dose: 200.0 mg/kg/injection, schedule: Q04DX002 (ip), vehicle: Klucel (hydroxypropylcellulose) (HPC)
[9] = dose: 100.0 mg/kg/injection, schedule: Q01DX009 (ip), vehicle: Klucel (hydroxypropylcellulose) (HPC)
[10] = dose: 200.0 mg/kg/injection, schedule: Q01DX009 (ip), vehicle: Klucel (hydroxypropylcellulose) (HPC)
[11] = dose: 100.0 mg/kg/injection, schedule: Q01DX001 (ip), vehicle: saline
[12] = dose: 200.0 mg/kg/injection, schedule: Q01DX001 (ip), vehicle: saline
[13] = dose: 100.0 mg/kg/injection, schedule: Q04DX003 (ip), vehicle: Klucel (hydroxypropylcellulose) (HPC)
[14] = dose: 200.0 mg/kg/injection, schedule: Q04DX003 (ip), vehicle: Klucel (hydroxypropylcellulose) (HPC)
[15] = dose: 400.0 mg/kg/injection, schedule: Q04DX003 (ip), vehicle: Klucel (hydroxypropylcellulose) (HPC)
[16] = dose: 100.0 mg/kg/injection, schedule: Q04DX002 (ip), vehicle: saline with Tween-80
[17] = dose: 50.0 mg/kg/injection, schedule: Q01DX001 (ip), vehicle: carboxymethylcellulose (CMC)
[18] = dose: 100.0 mg/kg/injection, schedule: Q01DX001 (ip), vehicle: carboxymethylcellulose (CMC)
[19] = dose: 200.0 mg/kg/injection, schedule: Q01DX001 (ip), vehicle: carboxymethylcellulose (CMC)
[20] = dose: 400.0 mg/kg/injection, schedule: Q01DX001 (ip), vehicle: carboxymethylcellulose (CMC)
[21] = dose: 100.0 mg/kg/injection, schedule: Q04DX003 (ip), vehicle: saline
[22] = dose: 200.0 mg/kg/injection, schedule: Q04DX003 (ip), vehicle: saline
[23] = dose: 400.0 mg/kg/injection, schedule: Q04DX003 (ip), vehicle: saline
[24] = dose: 400.0 mg/kg/injection, schedule: Q01DX001 (ip), vehicle: saline

Measured: T/C

CN(C)CCNCC(Cc1ccccc1)c1ccccc1 (stereo not given)
inactive: [1] 92 % of control | [2] 92 % of control | [3] 100 % of control and 89 % of control

C/C=C/CC1(CC(C)C)C(=O)NC(=S)NC1=O
inactive: dose: 75.0 mg/kg/injection, schedule: Q01DX001 (ip), vehicle: saline 102 % of control | dose: 150.0 mg/kg/injection, schedule: Q01DX001 (ip), vehicle: saline 94 % of control | dose: 300.0 mg/kg/injection, schedule: Q01DX001 (ip), vehicle: saline 99 % of control

COc1cc(/C=N/N(c2ccccc2)C2CCS(=O)(=O)C2)ccc1O (stereo not given)
inactive: [3] 93 % of control | [4] 101 % of control | [5] 93 % of control

O=C(O)c1cc(=O)c2cccc(Cl)c2[nH]1
inactive: [6] 103 % of control | [7] 100 % of control | [8] 96 % of control

CC(=O)Nc1ccc(S(=O)(=O)F)cc1C
inactive: [9] 98 % of control | [10] 95 % of control

CC(C)(Cc1ccc(Cl)cc1)N=C(N)N
inactive: dose: 25.0 mg/kg/injection, schedule: Q04DX002 (ip), vehicle: Klucel (hydroxypropylcellulose) (HPC) 107 % of control | [6] 95 % of control | [7] 104 % of control

CC(N)(CO)CO
inactive: dose: 100.0 mg/kg/injection, schedule: Q01DX009 (ip), vehicle: saline 114 % of control | [3] 90 % of control | dose: 200.0 mg/kg/injection, schedule: Q01DX009 (ip), vehicle: saline 122 % of control | [4] 103 % of control | dose: 400.0 mg/kg/injection, schedule: Q01DX009 (ip), vehicle: saline 100 % of control | [5] 103 % of control

CC[n+]1cn(-c2ccc(S(=O)(=O)[O-])cc2)nn1
inactive: [11] 101 % of control | [12] 110 % of control

CCCCCCCC(O)CCC (stereo not given)
inactive: [9] 94 % of control | [13] 100 % of control | [10] 104 % of control | [14] 97 % of control | [15] 92 % of control

CC(=O)n1cc(/C=C2\N=C(c3ccc([N+](=O)[O-])cc3)OC2=O)c2ccccc21
inactive: [16] 95 % of control | dose: 200.0 mg/kg/injection, schedule: Q04DX002 (ip), vehicle: saline with Tween-80 109 % of control | dose: 400.0 mg/kg/injection, schedule: Q04DX002 (ip), vehicle: saline with Tween-80 92 % of control

CCC(C)C(C#N)(CCN(CC=C(C)C)CC=C(C)C)c1cccc2ccccc12 (stereo not given)
inactive: [13] 96 % of control | [14] 110 % of control | [15] 93 % of control

NC(CCl)=NC1CN2CCC1CC2 (stereo not given)
inactive: [1] 101 % of control | [2] 90 % of control | [3] 102 % of control

O=C(NS(=O)(=O)c1ccc(Cl)c(Cl)c1)NS(=O)(=O)c1ccc(Cl)c(Cl)c1
inactive: dose: 100.0 mg/kg/injection, schedule: Q01DX001 (ip), vehicle: saline with Tween-80 100 % of control | dose: 200.0 mg/kg/injection, schedule: Q01DX001 (ip), vehicle: saline with Tween-80 99 % of control

CCOC(=O)c1ccc(N(CCC(O)CN=[N+]=[N-])S(=O)(=O)c2ccc(C)cc2)cc1 (stereo not given)
inactive: [17] 96 % of control | [18] 100 % of control | [19] 96 % of control | [20] 100 % of control

CC(=O)OC(c1ccccc1)C(Cl)(Cl)Cl (stereo not given)
inactive: dose: 100.0 mg/kg/injection, schedule: Q01DX009 (ip), vehicle: saline with Tween-80 93 % of control | dose: 200.0 mg/kg/injection, schedule: Q01DX009 (ip), vehicle: saline with Tween-80 104 % of control | dose: 400.0 mg/kg/injection, schedule: Q01DX009 (ip), vehicle: saline with Tween-80 97 % of control

Cc1ccc(NC(=O)COc2cc(Cl)c(Cl)cc2Cl)cc1[N+](=O)[O-]
inactive: dose: 25.0 mg/kg/injection, schedule: Q01DX009 (ip), vehicle: Klucel (hydroxypropylcellulose) (HPC) 86 % of control | dose: 50.0 mg/kg/injection, schedule: Q01DX009 (ip), vehicle: Klucel (hydroxypropylcellulose) (HPC) 100 % of control | dose: 75.0 mg/kg/injection, schedule: Q01DX009 (ip), vehicle: Klucel (hydroxypropylcellulose) (HPC) 100 % of control and 92 % of control

O=C1CCC2C1CC1CC3C(=O)CCC3C12 (stereo not given)
inactive: dose: 50.0 mg/kg/injection, schedule: Q04DX002 (ip), vehicle: saline with Tween-80 113 % of control | [16] 98 % of control

OC1OC(CCl)C(Cl)C(O)C1O (stereo not given)
inactive: [21] 106 % of control | [22] 101 % of control | [23] 98 % of control

COC(=O)Cc1ccc([N+](=O)[O-])cc1[N+](=O)[O-]
inactive: [21] 101 % of control | [22] 102 % of control | [23] 93 % of control

Cc1ccc(CS)cc1
inactive: [9] 101 % of control | [13] 97 % of control | [10] 93 % of control | [14] 97 % of control | [15] 92 % of control

COc1c2occc2c(OC)c2c(=O)cc(/C=C/c3ccc4ccccc4n3)oc12
inactive: [11] 95 % of control | [12] 95 % of control | [24] 96 % of control

NNC(=O)CNc1ccc(F)c(C(F)(F)F)c1
inactive: [7] 107 % of control | [8] 118 % of control

CCCc1nnn(S(=O)(=O)c2ccc([N+](=O)[O-])cc2)c1CCC
inactive: dose: 177.0 mg/kg/injection, schedule: Q01DX001 (ip), vehicle: other 88 % of control | dose: 266.0 mg/kg/injection, schedule: Q01DX001 (ip), vehicle: other 91 % of control | dose: 400.0 mg/kg/injection, schedule: Q01DX001 (ip), vehicle: other 96 % of control | dose: 600.0 mg/kg/injection, schedule: Q01DX001 (ip), vehicle: other 88 % of control

CC(C)(CO)NCc1ccc(O)cc1
inactive: [18] 96 % of control | [19] 100 % of control | [20] 96 % of control

NC(=O)SCC(N)C(=O)O (stereo not given)
inactive: [17] 101 % of control | [18] 90 % of control | [21] 104 % of control | [19] 95 % of control | [22] 110 % of control | [20] 101 % of control | [23] 116 % of control

CCCCCCCCCCCCOS(=O)(=O)O
inactive: [11] 98 % of control | [12] 95 % of control | [24] 98 % of control

C[Se]c1nc2c(=O)[nH]cnc2n1C1OC(CO)C(O)C1O (stereo not given)
inactive: dose: 100.0 mg/kg/injection, schedule: Q01DX005 (ip), vehicle: saline 103 % of control | dose: 200.0 mg/kg/injection, schedule: Q01DX005 (ip), vehicle: saline 111 % of control

CCCCCCCCCCCC(=O)Nc1cc(Cl)c(OC)cc1OC
inactive: [9] 95 % of control | [10] 92 % of control | dose: 400.0 mg/kg/injection, schedule: Q01DX009 (ip), vehicle: Klucel (hydroxypropylcellulose) (HPC) 93 % of control

CC(=O)Nc1ccc(N=NN(C)C)cc1
inactive: dose: 1.56 mg/kg/injection, schedule: Q04DX003 (ip), vehicle: saline with Tween-80 97 % of control and 101 % of control | dose: 3.12 mg/kg/injection, schedule: Q01DX001 (ip), vehicle: saline with Tween-80 101 % of control | dose: 3.12 mg/kg/injection, schedule: Q04DX003 (ip), vehicle: saline with Tween-80 97 % of control and 98 % of control | dose: 6.25 mg/kg/injection, schedule: Q01DX001 (ip), vehicle: saline with Tween-80 107 % of control | dose: 6.25 mg/kg/injection, schedule: Q04DX003 (ip), vehicle: saline with Tween-80 101 % of control and 104 % of control | dose: 12.5 mg/kg/injection, schedule: Q01DX001 (ip), vehicle: saline with Tween-80 108 % of control | dose: 12.5 mg/kg/injection, schedule: Q04DX003 (ip), vehicle: saline with Tween-80 100 % of control and 102 % of control | dose: 25.0 mg/kg/injection, schedule: Q01DX001 (ip), vehicle: saline with Tween-80 113 % of control

Cc1cc(C)nc(NCC(=O)O)n1
inactive: [2] 95 % of control | [3] 95 % of control | [4] 95 % of control

CC(C)CC(NC(=O)OC(C)(C)C)C(=O)NC(Cc1c[nH]c2ccccc12)C(=O)N1CCCC1C(=O)NCC(N)=O (stereo not given) (Boc-LWPG-NH2; configuration not given here)
inactive: [21] 93 % of control | [22] 90 % of control | [23] 97 % of control
